Numbers after ± are expanded uncertainties.
Test: xn = mol fraction of the nth substance listed
Settings: Liquid, Vibrating tube method, x1 = 1

Cc1ccccc1 [toluene] + CCC(=O)c1ccccc1
mass density [kg/m3]
Settings	298.15 K	308.15 K	318.15 K	328.15 K
100 kPa	862.1 ± 0.26	853 ± 0.27	843.8 ± 0.29	834.5 ± 0.3
2130 kPa	863.6 ± 0.27	854.5 ± 0.27	845.6 ± 0.28	836.5 ± 0.29
4150 kPa	865.2 ± 0.27	856.2 ± 0.28	847.3 ± 0.29	838.3 ± 0.29
6180 kPa	866.7 ± 0.27	857.8 ± 0.28	849 ± 0.29	840.1 ± 0.29
8210 kPa	868.2 ± 0.27	859.3 ± 0.28	850.6 ± 0.29	841.8 ± 0.3
10230 kPa	869.6 ± 0.28	860.9 ± 0.29	852.3 ± 0.29	843.5 ± 0.3
11250 kPa	870.4 ± 0.28	861.7 ± 0.29	853.1 ± 0.29	844.4 ± 0.3
12260 kPa	871.1 ± 0.28	862.4 ± 0.29	853.9 ± 0.29	845.2 ± 0.3
14290 kPa	872.5 ± 0.28	863.9 ± 0.29	855.4 ± 0.3	846.9 ± 0.31
16310 kPa	873.9 ± 0.29	865.4 ± 0.29	857 ± 0.3	848.6 ± 0.31
18340 kPa	875.3 ± 0.29	866.8 ± 0.3	858.5 ± 0.3	850.1 ± 0.31
20370 kPa	876.7 ± 0.29	868.2 ± 0.3	860 ± 0.31	851.7 ± 0.32
22390 kPa	878 ± 0.29	869.6 ± 0.3	861.5 ± 0.31	853.3 ± 0.32
24420 kPa	879.3 ± 0.3	871 ± 0.31	862.9 ± 0.32	854.8 ± 0.33
26450 kPa	880.6 ± 0.3	872.4 ± 0.31	864.4 ± 0.32	856.3 ± 0.33
28470 kPa	881.9 ± 0.31	873.8 ± 0.32	865.8 ± 0.33	857.8 ± 0.34
29490 kPa	882.5 ± 0.31	874.4 ± 0.31	866.5 ± 0.33	858.5 ± 0.34
30500 kPa	883.2 ± 0.31	875 ± 0.32	867.2 ± 0.33	859.3 ± 0.34
32530 kPa	884.4 ± 0.31	876.3 ± 0.32	868.5 ± 0.33	860.7 ± 0.34
34550 kPa	885.6 ± 0.32	877.6 ± 0.33	869.9 ± 0.34	862.1 ± 0.35
36580 kPa	886.8 ± 0.32	878.9 ± 0.33	871.2 ± 0.34	863.5 ± 0.35
38600 kPa	888 ± 0.32	880.1 ± 0.33	872.5 ± 0.35	864.9 ± 0.36
39620 kPa	888.6 ± 0.33	880.7 ± 0.35	873.2 ± 0.35	865.5 ± 0.35

Reference: the NIST ThermoML archive (doi:10.1016/j.jct.2004.10.011)
